Measurements: patent publication US7169815B2, “3-methoxybenzyl thiourea derivatives and improved lipid compositions containing same” (The United States of America as represented by the …, priority 2000, dated 2007)
In brackets after ≈: the same amount, converted by molar mass. Like-named read-outs stand apart in the source and are kept apart here.

Key:
[1] = UVB and UVA molar absorptivities in chloroform; type: physicochemical; conditions: 0.01 mg/ml in chloroform
Description: The compounds synthesized in Example 3 were tested to determine their ability to absorb […] UVA light. UV spectra of quantitatively weighed and diluted samples (0.01 mg/ml) in chloroform were scanned from 244–450 nm at 240 nm/min on a Beckman DU 640 spectrophotometer (Beckman Coulter, Inc., Fullerton, Calif.). Amax in the 280–320 nm range was determined and converted to molar absorptivity for the UVB region, and Amax in the 320–400 nm range was determined and converted to molar absorptivity for the UVA region.

in vivo = conditions: Artemia salina (brine shrimp), in vivo, other: exposure in seawater in microplate wells
Description: (§1) Brine shrimp eggs (Artemia salina) were obtained from Brine Shrimp Direct, Ogden, Utah and stored at 10° C. until used. Eggs (400 mg) were added to 1 l of deionized water containing 40 g of sea salts (Sigma Chemical Co., St. Louis, Mo.).
(§2) Serial dilutions were performed in 100 μl of seawater in triplicate in the wells of a 96-well microplate to give appropriate concentrations. Control wells for both water and DMSO were included with each experiment. […] The number of non-motile, and the total number of, naupli were counted in each well using a binocular microscope (10×).

[2] = test system: Brine Shrimp (Artemia Salina); assay: in vivo; conditions: as Table 7 shows
Description: as §1, §2

[3] = Solubility in refined meadowfoam seed oil (HPLC); type: physicochemical; conditions: oil or lipid, thermodynamic from solid, cooled to room temperature overnight
Description: Typical retention times were 7–9 min for the thioureas. Samples were weighed accurately (about 0.1 g) into 1.00 g of refined meadowfoam seed oil and heated to temperature (either 30° C. or 50° C.) for 4 h with occasional shaking. The samples were cooled to room temperature overnight, centrifuged and 0.3 g of the supernatant oil was removed and diluted with 1 ml CHCl3 for testing.

[4] = Oxidative Stability by Rotating Pressure Vessel (RBOT) of refined meadowfoam seed oil plus thiourea compounds
From the text: Another presently preferred method of determining oxidative stability of lipids and oils employs the Oxidative Stability by Rotating Pressure Vessel (RBOT) test. In this test, oxidative stability, determined according to the ASTM D2272-98 test method (ASTM, 2001, “Standard Test Method for Oxidation Stability of Steam Turbine Oils by Rotating Pressure Vessel,” in Book of Standards, Vol. 05.01., American Society for Testing and Materials, West Conshohocken, Pa.), measures the time for oxygen pressure to decrease in a closed stainless steel vessel containing a lipid or oil when heated with a copper coil catalyst. Oxygen taken up by the lipid or oil during the reaction is an indication of oil degradation.
In these experiments, Oxidative Stability by Rotating Pressure Vessel (RBOT) tests were performed with different 3-methoxybenzyl thiourea compounds synthesized in Example 3 that were mixed in different quantities with different mono- and polyunsaturated vegetable oils. Hexane was used to clean and store the copper coils, but all other aspects of the Oxidative Stability by Rotating Pressure Vessel (RBOT) test were the same as in the standard ASTM D2272–98 test method (ASTM, 2001, “Standard Test Method for Oxidation Stability of Steam Turbine Oils by Rotating Pressure Vessel,” in Book of Standards, Vol. 05.01., American Society for Testing and Materials, West Conshohocken, Pa.).

[5] = Decomposition temperature by differential scanning calorimetry; type: physicochemical; conditions: DSC, onset of decrease in slope of temperature-heat flow curve; unit not given (scans in ° C.)
Description: A dual cell Perkin Elmer differential scanning calorimeter (PE DSC 7, Norwalk, Conn.) was used to determine the thermal transitions of the compounds. All scans were carried out from 30° C. to 200° C. at a heating and cooling rate of 10° C./minute and 40° C./min, respectively, except for 1-(3-methoxybenzyl)-3-(1-propenyl) thiourea, for which the scans were carried out from 0° C. to 200° C. at a heating rate of 10° C./min, and 1-(3-methoxybenzyl)-3-octadecyl thiourea, for which both the heating and cooling rates were 10° C./min. 1,3-di(3-methoxybenzyl) thiourea and 1-(3-methoxybenzyl)-3-dodecyl thiourea were heated to 300° C., and 1-(3-methoxybenzyl)-3-(4-methoxybenzoyl) thiourea was heated to 250° C. to determine the decomposition temperature. The decomposition temperature was taken as the onset of a decrease in the slope of the temperature-heat flow DSC curve. The first heating curve was recorded in all cases, and liquid nitrogen was used to quench the samples after the first heating.

[6] = Behaviour on addition of water to DMSO solution (sample preparation); type: physicochemical; conditions: dissolved in 50 μl DMSO, water added to make 1 mg/ml
Description: Test compounds (1–2 mg) were originally made up at a concentration of 1 mg/ml in artificial seawater, except for water insoluble compounds, which were dissolved in 50 μl of dimethyl sulfoxide (DMSO) prior to adding enough water to make a 1 mg/ml solution. Serial dilutions were performed in 100 μl of seawater in triplicate in the wells of a 96-well microplate to give appropriate concentrations. Control wells for both water and DMSO were included with each experiment. A 100 μl solution of naupli (10–30) was added to each well, and the covered plate was incubated for 24 h at 27° C. The number of non-motile, and the total number of, naupli were counted in each well using a binocular microscope (10×). LC50 values were then calculated by Probit analysis (Finney, D. J., 1971, “Probit Analysis,” 3rd Ed.; University Press: Cambridge [Eng.]).

UVBMAX Molar Absorptivity ([1]; Amax in 280–320 nm): 2999 | UVAMAX Molar Absorptivity ([1]; Amax in 320–400 nm): 0.0 | solubility at 4 h ([3]; heated to 30° C. for 4 h, read-out: Solubility at 30° C.): 3070 µg/mL (≈ 9.95 mM) | solubility at 4 h ([3]; heated to 50° C. for 4 h, read-out: Solubility at 50° C.): 2490 µg/mL (≈ 8.07 mM) | Oxidative Stability (RBOT) ([4]; Refined Meadowfoam Seed Oil plus 0.1% compound): 43 min | Oxidative stability in the RBOT test, in words ([4]; addition of 0.1% compound): doubled | Decomposition Temperature [5]: > 200 °C | behaviour upon the addition of water [6]: precipitated out of solution
SMILES: CCCCCCCCNC(=S)NCc1cccc(OC)c1 [1-(3-methoxybenzyl)-3-octyl thiourea]
LC50 at 24 h (in vivo): 240 µg/mL (≈ 0.778 mM) | toxicity against brine shrimp, in words [2]: low toxicity
